ChEMBL document CHEMBL2439975, “Aminopropyl carbazole analogues as potent enhancers of neurogenesis” (Bioorg Med Chem, 2013)
Active and inactive are the calls of the source. No cut-off for these calls is given here.

Tests used:
NSC [1] = assay: Induction of differentiation of Sprague-Dawley rat embryo cortex NSC assessed as TUJ1-positive neurons at 5 uM after 4 days by immunostaining method relative to DMSO-treated control; format: functional
NSC [2] = assay: Induction of neurogenesis of Sprague-Dawley rat embryo cortex NSC assessed as increase in beta3 tubulin mRNA expression at 5 uM after 4 days by RT-PCR method relative to DMSO-treated control; format: functional
NSC [3] = assay: Inhibition of astrocytogenesis of Sprague-Dawley rat embryo cortex NSC assessed as repression of gfap mRNA expression after 4 days by RT-PCR method relative to DMSO-treated control; format: functional, cell-based
NSC [4] = assay: Induction of neurogenesis of Sprague-Dawley rat embryo cortex NSC assessed as effect on morphology at 10 uM after 4 days by DAPI-based phase-contrast microscopy relative to DMSO-treated control; format: functional, cell-based
NSC [5] = assay: Induction of neurogenesis of Sprague-Dawley rat embryo cortex NSC assessed as increase in beta3 tubulin mRNA expression after 4 days by RT-PCR method relative to DMSO-treated control; format: functional, cell-based
NSC [6] = assay: Neuroprotective activity against Sprague-Dawley rat embryo cortex NSC assessed as […] of bcl2 to bax at 5 to 10 uM after 2 days by RT-PCR method relative to DMSO-treated control; format: functional, cell-based
NSC [7] = assay: Antiproliferative activity against Sprague-Dawley rat embryo cortex NSC assessed as reduction in neurosphere volume at 5 to 10 uM after 5 days by neurosphere growth assay relative to DMSO-treated control in presence of EGF and FGF2; format: functional, cell-based
NSC [8] = assay: Induction of neurogenesis of Sprague-Dawley rat embryo cortex NSC assessed as increase in neuroD mRNA expression after 4 days by RT-PCR method relative to DMSO-treated control; format: functional, cell-based
NSC [9] = assay: Neuroprotective activity against Sprague-Dawley rat embryo cortex NSC assessed as reduction of bax mRNA at 5 to 10 uM after 2 days by RT-PCR method relative to DMSO-treated control; format: functional, cell-based
NSC [10] = assay: Inhibition of astrocytogenesis of Sprague-Dawley rat embryo cortex NSC assessed as downregulation of hes1 mRNA expression after 4 days by RT-PCR method relative to DMSO-treated control; format: functional, cell-based
NSC [11] = assay: Cytotoxicity against Sprague-Dawley rat embryo cortex NSC assessed as shrinkage and rounding up of cells at 20 to 50 uM after 2 days by microscopy relative to DMSO-treated control in presence of EGF and FGF2; format: cell-based; conditions: 48 h
NSC [12] = assay: Neuroprotective activity against Sprague-Dawley rat embryo cortex NSC assessed as reduction of bcl2 mRNA at 5 to 10 uM after 2 days by RT-PCR method relative to DMSO-treated control; format: functional, cell-based
NSC [13] = assay: Cytotoxicity against Sprague-Dawley rat embryo cortex NSC assessed as cell viability at 1 to 50 uM after 2 days by MTT assay relative to DMSO-treated control; format: cell-based; conditions: 48 h
NSC [14] = assay: Inhibition of astrocytogenesis of Sprague-Dawley rat embryo cortex NSC assessed as downregulation of notch1 mRNA expression after 4 days by RT-PCR method relative to DMSO-treated control; format: functional, cell-based
NSC [15] = assay: Cytotoxicity against Sprague-Dawley rat embryo cortex NSC assessed as effect on morphology at 10 uM after 4 days by DAPI-based phase-contrast microscopy relative to DMSO-treated control; format: cell-based; conditions: 96 h
NSC [16] = assay: Neuroprotective activity against Sprague-Dawley rat embryo cortex NSC assessed as reduction of bcl2 mRNA at 10 uM after 2 days by RT-PCR method relative to DMSO-treated control; format: functional, cell-based
NSC [17] = assay: Neuroprotective activity against Sprague-Dawley rat embryo cortex NSC assessed as reduction of bax mRNA at 10 uM after 2 days by RT-PCR method relative to DMSO-treated control; format: functional, cell-based
NSC [18] = assay: Neuroprotective activity against Sprague-Dawley rat embryo cortex NSC assessed as […] of bcl2 to bax at 10 uM after 2 days by RT-PCR method relative to DMSO-treated control; format: functional, cell-based

Structure (SMILES) | fold change (FC) (NSC [1]) | further results
COc1cccc(N(Cc2ccccc2)CC(F)Cn2c3ccc(Br)cc3c3cc(Br)ccc32)c1 (stereo not drawn) | 0.58 | 
COc1cccc(N(CC(O)Cn2c3ccc(Br)cc3c3cc(Br)ccc32)S(=O)(=O)c2ccc(C)cc2)c1 (stereo not drawn) | 1.52 | fold change (FC) (NSC [2]): 1.43; inhibition (NSC [3]): Dose-dependent effect; Activity (NSC [4]): Active; Activity (NSC [5]): Dose-dependent effect; Activity (NSC [6]): Active; Activity (NSC [7]): Active; Activity (NSC [8]): Dose-dependent effect; Activity (NSC [9]): Active; inhibition (NSC [10]): Dose-dependent effect; Activity (NSC [11]): Non-toxic; Activity (NSC [12]): Active; Activity (NSC [13]): Non-toxic; inhibition (NSC [14]): Dose-dependent effect
COc1ccc(NCC(O)Cn2c3ccc(Br)cc3c3cc(Br)ccc32)cc1 (stereo not drawn) | 1.17 | 
COc1cccc(NCC(O)Cn2c3ccc(Br)cc3c3cc(Br)ccc32)c1 (stereo not drawn) | 1.16 | 
COc1cccc(N(CC(Cn2c3ccc(Br)cc3c3cc(Br)ccc32)OC)S(=O)(=O)c2ccc([N+](=O)[O-])cc2)c1 (stereo not drawn) | 0.92 | 
COc1cccc(NC/C(Cn2c3ccc(Br)cc3c3cc(Br)ccc32)=N\O)c1 | 1.13 | 
COc1cccc(OCC(O)Cn2c3ccc(Br)cc3c3cc(Br)ccc32)c1 (stereo not drawn) | 1.12 | 
COc1cccc(N(CC(O)Cn2c3ccc(Br)cc3c3cc(Br)ccc32)C(C)=O)c1 (stereo not drawn) | 1.25 | 
COc1cccc(NCC(Cn2c3ccc(Br)cc3c3cc(Br)ccc32)OC(=O)OC(C)(C)C)c1 (stereo not drawn) | 1.25 | 
COc1cccc(N(CC(Cn2c3ccc(Br)cc3c3cc(Br)ccc32)OC)S(=O)(=O)c2ccc(C)cc2)c1 (stereo not drawn) | 0.73 | 
COc1cccc(N(C)CC(O)Cn2c3ccc(Br)cc3c3cc(Br)ccc32)c1 (stereo not drawn) | 1.42 | 
COc1cccc(NCC(=O)Cn2c3ccc(Br)cc3c3cc(Br)ccc32)c1 | 1.02 | 
COc1cccc(NCC(F)Cn2c3ccccc3c3ccccc32)c1 (stereo not drawn) | 1.07 | 
COc1cccc(N(CC(Cn2c3ccc(Br)cc3c3cc(Br)ccc32)OC(C)=O)S(=O)(=O)c2ccc(C)cc2)c1 (stereo not drawn) | 0.65 | 
COc1cccc(N(CC(=O)Cn2c3ccc(Br)cc3c3cc(Br)ccc32)S(=O)(=O)c2ccc(C)cc2)c1 | 0.52 | 
OC(CNc1ccc(Cl)cc1)Cn1c2ccc(Br)cc2c2cc(Br)ccc21 (stereo not drawn) | 1.29 | 
Cc1ccc(NCC(O)Cn2c3ccc(Br)cc3c3cc(Br)ccc32)cc1 (stereo not drawn) | 1.88 | Activity (NSC [15]): Toxic
COc1cccc(NCC(F)Cn2c3ccccc3c3cc(Br)ccc32)c1 (stereo not drawn) | 0.86 | 
COc1ccc(NCC(O)Cn2c3ccc(Br)cc3c3cc(Br)ccc32)cc1OC (stereo not drawn) | 1.67 | fold change (FC) (NSC [2]): 1.47; Activity (NSC [15]): Toxic
OC(CNc1ccccc1)Cn1c2ccc(Br)cc2c2cc(Br)ccc21 (stereo not drawn) | 1.47 | 
COc1cccc(N(Cc2ccccc2)CC(O)Cn2c3ccc(Br)cc3c3cc(Br)ccc32)c1 (stereo not drawn) | 0.57 | 
COc1cccc(NCC(Cn2c3ccc(Br)cc3c3cc(Br)ccc32)OC)c1 (stereo not drawn) | 0.96 | 
COc1cccc(NCC(Cn2c3ccc(Br)cc3c3cc(Br)ccc32)OC(C)=O)c1 (stereo not drawn) | 0.63 | 
COc1cccc(OCC(F)Cn2c3ccc(Br)cc3c3cc(Br)ccc32)c1 (stereo not drawn) | 0.87 | 
COc1cccc(NCC(F)Cn2c3ccc(Br)cc3c3cc(Br)ccc32)c1 (stereo not drawn) | 1.16 | Activity (NSC [16]): Active; Activity (NSC [17]): inactive; Activity (NSC [18]): Active; Activity (NSC [11]): Toxic; Activity (NSC [13]): Non-toxic
COc1cccc(NCC(Cn2c3ccccc3c3ccccc32)OC(C)=O)c1 (stereo not drawn) | 0.39 | 
OC(CNc1ccc2c(c1)OCO2)Cn1c2ccc(Br)cc2c2cc(Br)ccc21 (stereo not drawn) | 0.88 | 
